These results are taken from patent US6673938B1, “Substituted pyridine herbicides” (Syngenta Participations AG, priority 1998, dated 2004).

Assay [1] has as its system Monocotyledonous and dicotyledonous test plants. Kind of assay: Post-emergence herbicidal action. The class given is in vivo. The conditions noted are these: 2000 g/ha, sprayed in 4- to 6-leaf stage, evaluated after approximately 18 days, nine-step scale. The method, then:
Monocotyledonous and dicotyledonous test plants are grown in the greenhouse in plastic pots containing standard soil, and, in the 4- to 6-leaf stage, sprayed with an aqueous suspension of the test substances of the formula I prepared with a 25% wettable powder (Example F3, b) in accordance with WO 97/34485) or with an emulsion of the test substances of the formula I prepared with a 25% emulsion concentrate (Example F1, c) in accordance with WO 97/34485), corresponding to a rate of 2 kg of a.i./ha or 250 g of a.i./ha (500 l of water/ha). The test plants are subsequently grown on in the greenhouse under optimal conditions. After a test period of approximately 18 days, the test is evaluated with reference to a nine-step scale (1=complete damage, 9=no effect). Score figures of 1 to 4 (in particular 1 to 3) mean a good to very good herbicidal action. In this test, the compounds of the formula I show a potent herbicidal action.

Assay [2] has the same test system. Kind of assay: Herbicidal action before emergence of the plants (pre-emergence action). The class given is in vivo. The conditions noted are these: 2000 g/ha, evaluated after 3 weeks, nine-step scale. Here is the method: Monocotyledonous and dicotyledonous test plants are sown in standard soil in plastic pots. Immediately after sowing, the test substances as aqueous suspensions (prepared with a 25% wettable powder (Example F3, b) in accordance with WO 97/34485) or as emulsions (prepared with a 25% emulsion concentrate (Example F1, c)) are sprayed on at a rate of 2 kg of a.i./ha or 250 g of a.i./ha (500 l of water/ha). The test plants are then grown in the greenhouse under optimal conditions. After a test period of 3 weeks, the experiment is evaluated with reference to a nine-step scale (1=complete damage, 9=no effect). Score figures of 1 to 4 (in particular 1 to 3) mean a good to very good herbicidal action.

SMILES strings stand for the structures.

Regarding `CCN(CC)CC.COCc1nc(C(F)(F)F)ccc1C(=O)C1=C(O)CC(C)CC1=O` (stereo not drawn) [Compound A8-B1101], in assay [1], the “Post-emergence action, Ipomoea” value worked out at 2; the “Post-emergence action, Lolium” value worked out at 3; the “Post-emergence action, Setaria” value is given as 2; the “Post-emergence action, Sinapis” value was 1. In addition, in assay [1], the “Post-emergence action, Solanum” value is listed as 2 and the “Post-emergence action, Stellaria” value turned out to be 2. Moreover, in assay [2], the “pre-emergence action, Cyperus” value is reported as 2; the “pre-emergence action, Ipomoea” value is reported as 4; the “pre-emergence action, Setaria” value worked out at 2; the “pre-emergence action, Sinapis” value was found to be 2. Besides, in assay [2], the “pre-emergence action, Solanum” value is on record as 1 and the “pre-emergence action, Stellaria” value is 1.
Take `Cc1nc(C(F)(F)F)ccc1C(=O)C1=C(O)C(C)C(C)(C)CC1=O` (stereo not drawn) [Compound A2-B1095]: in assay [1], the “Post-emergence action, Ipomoea” value is on record as 1; the “Post-emergence action, Lolium” value is 2; the “Post-emergence action, Setaria” value is 4; the “Post-emergence action, Sinapis” value was found to be 1. In assay [1], the “Post-emergence action, Solanum” value stood at 2 and the “Post-emergence action, Stellaria” value is 2. Further, in assay [2], the “pre-emergence action, Cyperus” value came out at 3; the “pre-emergence action, Ipomoea” value is 4; the “pre-emergence action, Setaria” value was 2; the “pre-emergence action, Sinapis” value is 2. Moreover, in assay [2], the “pre-emergence action, Solanum” value came to 1 and the “pre-emergence action, Stellaria” value was found to be 2.
`CCC1(C)CC(C)(C)C(=O)C(C(=O)c2ccc(C(F)(F)F)nc2C)=C1O` (stereo not drawn) [Compound A2-B91]: in assay [1], the “Post-emergence action, Ipomoea” value is 1; the “Post-emergence action, Lolium” value was 2; the “Post-emergence action, Setaria” value was 2; the “Post-emergence action, Sinapis” value is 1. In assay [1], the “Post-emergence action, Solanum” value came to 2 and the “Post-emergence action, Stellaria” value is 2. Also, in assay [2], the “pre-emergence action, Cyperus” value stood at 1; the “pre-emergence action, Ipomoea” value turned out to be 2; the “pre-emergence action, Setaria” value is listed as 1; the “pre-emergence action, Sinapis” value came to 2. For the same compound, in assay [2], the “pre-emergence action, Solanum” value was 1 and the “pre-emergence action, Stellaria” value worked out at 2.
In the case of `COCc1nc(C(F)(F)F)ccc1C(=O)C1=C(O)C(C)(C)CCC1=O` [Compound A8-B24], in assay [1], the “Post-emergence action, Ipomoea” value came to 2; the “Post-emergence action, Lolium” value was found to be 2; the “Post-emergence action, Setaria” value is listed as 2; the “Post-emergence action, Sinapis” value is given as 1. In assay [1], the “Post-emergence action, Solanum” value worked out at 2 and the “Post-emergence action, Stellaria” value came to 2. For the same compound, in assay [2], the “pre-emergence action, Cyperus” value came to 1; the “pre-emergence action, Ipomoea” value amounted to 2; the “pre-emergence action, Setaria” value came out at 2; the “pre-emergence action, Sinapis” value was 2. Further, in assay [2], the “pre-emergence action, Solanum” value was determined as 1 and the “pre-emergence action, Stellaria” value is 3.
Take `Cc1nc(C(F)(F)F)ccc1C(=O)C1=C(O)C(C)C(C)CC1=O` (stereo not drawn) [Compound A2-B134]: in assay [1], the “Post-emergence action, Ipomoea” value turned out to be 2; the “Post-emergence action, Lolium” value was 2; the “Post-emergence action, Setaria” value came to 1; the “Post-emergence action, Sinapis” value is on record as 1. Also, in assay [1], the “Post-emergence action, Solanum” value is listed as 1 and the “Post-emergence action, Stellaria” value was 2. In addition, in assay [2], the “pre-emergence action, Cyperus” value came out at 1; the “pre-emergence action, Ipomoea” value is 2; the “pre-emergence action, Setaria” value stood at 1; the “pre-emergence action, Sinapis” value was found to be 2. In assay [2], the “pre-emergence action, Solanum” value came out at 1 and the “pre-emergence action, Stellaria” value is given as 1.
For the compound `Cc1nc(C(F)(F)C(F)(F)C(F)(F)F)ccc1C(=O)C1=C(O)C(C)(C)CCC1=O` [Compound A64-B24], in assay [1], the “Post-emergence action, Ipomoea” value came to 2; the “Post-emergence action, Lolium” value worked out at 2; the “Post-emergence action, Setaria” value is 4; the “Post-emergence action, Sinapis” value is given as 1. In assay [1], the “Post-emergence action, Solanum” value is listed as 2 and the “Post-emergence action, Stellaria” value was determined as 2. In addition, in assay [2], the “pre-emergence action, Cyperus” value was 4; the “pre-emergence action, Ipomoea” value was determined as 4; the “pre-emergence action, Setaria” value was 2; the “pre-emergence action, Sinapis” value is 2. In assay [2], the “pre-emergence action, Solanum” value is given as 1 and the “pre-emergence action, Stellaria” value amounted to 2.
`CSC1(C)CC(C)(C)C(=O)C(C(=O)c2ccc(C(F)(F)F)nc2C)=C1O` (stereo not drawn) [Compound A2-B95]: in assay [1], the “Post-emergence action, Ipomoea” value is 1; the “Post-emergence action, Lolium” value stood at 2; the “Post-emergence action, Setaria” value is 2; the “Post-emergence action, Sinapis” value turned out to be 1. Further, in assay [1], the “Post-emergence action, Solanum” value is recorded as 2 and the “Post-emergence action, Stellaria” value worked out at 2. Also, in assay [2], the “pre-emergence action, Cyperus” value was 2; the “pre-emergence action, Ipomoea” value is given as 4; the “pre-emergence action, Setaria” value is 2; the “pre-emergence action, Sinapis” value turned out to be 2. Also, in assay [2], the “pre-emergence action, Solanum” value was determined as 1 and the “pre-emergence action, Stellaria” value is reported as 2.
For the compound `COC1CCC(=O)C(C(=O)c2ccc(C(F)(F)F)nc2C)=C1O` (stereo not drawn) [Compound A2-B1068], in assay [1], the “Post-emergence action, Ipomoea” value is recorded as 1; the “Post-emergence action, Lolium” value worked out at 2; the “Post-emergence action, Setaria” value came out at 4; the “Post-emergence action, Sinapis” value came to 1. Moreover, in assay [1], the “Post-emergence action, Solanum” value came out at 1 and the “Post-emergence action, Stellaria” value was determined as 2. In addition, in assay [2], the “pre-emergence action, Cyperus” value was 2; the “pre-emergence action, Ipomoea” value is 2; the “pre-emergence action, Setaria” value was determined as 2; the “pre-emergence action, Sinapis” value worked out at 2. For the same compound, in assay [2], the “pre-emergence action, Solanum” value came out at 1 and the “pre-emergence action, Stellaria” value was determined as 2.
As for `Cc1cc(C(=O)C2=C(O)CCCC2=O)c(C)nc1C(F)(F)F` [Compound A184-B1], in assay [1], the “Post-emergence action, Ipomoea” value amounted to 1; the “Post-emergence action, Lolium” value is recorded as 3; the “Post-emergence action, Setaria” value stood at 2; the “Post-emergence action, Sinapis” value came out at 1. Also, in assay [1], the “Post-emergence action, Solanum” value is listed as 2 and the “Post-emergence action, Stellaria” value is 2. Also, in assay [2], the “pre-emergence action, Cyperus” value was determined as 2; the “pre-emergence action, Ipomoea” value is given as 4; the “pre-emergence action, Setaria” value is listed as 2; the “pre-emergence action, Sinapis” value was found to be 2. Besides, in assay [2], the “pre-emergence action, Solanum” value worked out at 1 and the “pre-emergence action, Stellaria” value was determined as 2.
In the case of `CCc1nc(C(F)(F)F)ccc1C(=O)C1=C(O)C(C)(C)CCC1=O` [Compound A3-B24], in assay [1], the “Post-emergence action, Ipomoea” value turned out to be 2; the “Post-emergence action, Lolium” value is 2; the “Post-emergence action, Setaria” value is recorded as 2; the “Post-emergence action, Sinapis” value worked out at 1. Besides, in assay [1], the “Post-emergence action, Solanum” value is listed as 2 and the “Post-emergence action, Stellaria” value is reported as 2. Further, in assay [2], the “pre-emergence action, Cyperus” value was 1; the “pre-emergence action, Ipomoea” value came to 3; the “pre-emergence action, Setaria” value is 2; the “pre-emergence action, Sinapis” value is 2. In assay [2], the “pre-emergence action, Solanum” value is 1 and the “pre-emergence action, Stellaria” value was found to be 2.
For `COCCc1nc(C(F)(F)F)ccc1C(=O)C1=C(O)CCCC1=O` [Compound A9-B1], in assay [1], the “Post-emergence action, Ipomoea” value was 2; the “Post-emergence action, Lolium” value was 4; the “Post-emergence action, Setaria” value is 2; the “Post-emergence action, Sinapis” value came to 2. In assay [1], the “Post-emergence action, Solanum” value worked out at 2 and the “Post-emergence action, Stellaria” value was determined as 2. In assay [2], the “pre-emergence action, Cyperus” value turned out to be 2; the “pre-emergence action, Ipomoea” value was 1; the “pre-emergence action, Setaria” value amounted to 2; the “pre-emergence action, Sinapis” value is 1. In assay [2], the “pre-emergence action, Solanum” value turned out to be 1 and the “pre-emergence action, Stellaria” value amounted to 2.
In the case of `Cc1nc(C(F)(F)F)ccc1C(=O)C1=C(O)C(C)(C)CC(C)(C)C1=O` [Compound A2-B90], in assay [1], the “Post-emergence action, Ipomoea” value is 1; the “Post-emergence action, Lolium” value turned out to be 2; the “Post-emergence action, Setaria” value turned out to be 2; the “Post-emergence action, Sinapis” value is given as 1. Besides, in assay [1], the “Post-emergence action, Solanum” value stood at 2 and the “Post-emergence action, Stellaria” value turned out to be 2. Further, in assay [2], the “pre-emergence action, Cyperus” value came out at 1; the “pre-emergence action, Ipomoea” value is given as 1; the “pre-emergence action, Setaria” value stood at 1; the “pre-emergence action, Sinapis” value worked out at 1. In assay [2], the “pre-emergence action, Solanum” value stood at 1 and the “pre-emergence action, Stellaria” value came to 1.
